Experimental data: ChEMBL document CHEMBL1201862, “PubChem BioAssay data set” (2004)
Structures can show the parent of a compound that is named as a salt.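 Step 1: Grow cells in 96-well plates. Step 2: Expose to compound for 48 hours at 5 concentrations. Step 3: Interpolate endpoints linearly; if unreached, use highest concentration. Abbreviation: GI50, concentration required for 50% inhibition of growth.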 Calls of active or inactive are those of the source. No stated cut-off is given here; in the data, active = GI50 up to about 1.1 µM and inactive = higher.

What was measured:
Experiment in all cases: NCI-60 cell line screen, 48 h
SNB-19 = tested on: SNB-19
SN12C = tested on: SN12C
UO-31 = tested on: UO-31
CCRF-CEM = tested on: CCRF-CEM
U-251 = tested on: U-251
Malme-3M = tested on: Malme-3M
CAKI-1 = tested on: CAKI-1
NCI-H226 = tested on: NCI-H226
MCF7 = tested on: MCF7
SK-OV-3 = tested on: SK-OV-3
M14 = tested on: M14
EKVX = tested on: EKVX
K562 = tested on: K562
OVCAR-4 = tested on: OVCAR-4
HCT-116 = tested on: HCT-116
HL-60 = tested on: HL-60
HOP-92 = tested on: HOP-92
SF-539 = tested on: SF-539
SK-MEL-2 = tested on: SK-MEL-2
SW-620 = tested on: SW-620

| Compound | GI50 (SNB-19) | GI50 (SN12C) | GI50 (UO-31) | GI50 (CCRF-CEM) | GI50 (U-251) | GI50 (Malme-3M) | GI50 (CAKI-1) | GI50 (NCI-H226) | GI50 (MCF7) | GI50 (SK-OV-3) | GI50 (M14) | GI50 (EKVX) | GI50 (K562) | GI50 (OVCAR-4) | GI50 (HCT-116) | GI50 (HL-60) | GI50 (HOP-92) | GI50 (SF-539) | GI50 (SK-MEL-2) | GI50 (SW-620) |
| --- | --- | --- | --- | --- | --- | --- | --- | --- | --- | --- | --- | --- | --- | --- | --- | --- | --- | --- | --- | --- |
| S=C1CC(c2ccc(Cl)cc2)Sc2ccccc2N1 (centres undefined) | 27.8 µM (inactive) | 78.5 µM (inactive) | > 100 µM (inactive) | 51.9 µM (inactive) | 41.3 µM (inactive) | 53.2 µM (inactive) | 41.4 µM (inactive) | 50.5 µM (inactive) | 39.4 µM (inactive) | 22.5 µM (inactive) | 24.3 µM (inactive) | 34 µM (inactive) | > 10 µM (inactive) | 28.8 µM (inactive) | 19.1 µM (inactive) | 30.5 µM (inactive) |  |  |  |  |
| CCS(CC)(CC)CC1CCCC2=CCC(P(=O)(c3ccccc3)c3ccccc3)CC21 (centres undefined) | 12.9 µM (inactive) | 11.9 µM (inactive) | 6.32 µM (inactive) | 6.78 µM (inactive) | 10.2 µM (inactive) | 18.4 µM (inactive) | 10 µM (inactive) | 18.7 µM (inactive) |  | 12.7 µM (inactive) | 12.2 µM (inactive) | 14.3 µM (inactive) | 4.09 µM (inactive) | 10.1 µM (inactive) | 7.36 µM (inactive) | 3.31 µM (inactive) | 2.5 µM (inactive) | 13.3 µM (inactive) | 14.2 µM (inactive) | 13.9 µM (inactive) |
| CNNC1=NS(=O)(=O)c2cc(C#N)c(Cl)cc2S1 | > 10 µM (inactive) | > 10 µM (inactive) | 1.68 µM (inactive) | > 10 µM (inactive) | > 10 µM (inactive) | > 10 µM (inactive) | > 10 µM (inactive) | > 10 µM (inactive) | 0.00303 µM (active) | > 10 µM (inactive) | > 10 µM (inactive) | > 10 µM (inactive) | > 10 µM (inactive) | > 10 µM (inactive) | > 10 µM (inactive) | > 10 µM (inactive) |  | > 10 µM (inactive) | > 10 µM (inactive) | > 10 µM (inactive) |
| Cn1c(N/N=C/c2ccc(Cl)cc2)nc(-c2ccc(Cl)cc2)c(C#N)c1=O | > 100 µM (inactive) | 44.1 µM (inactive) | 16 µM (inactive) | 25.4 µM (inactive) | 29.9 µM (inactive) | 24.2 µM (inactive) | 47 µM (inactive) |  | 21.1 µM (inactive) | > 100 µM (inactive) | 20 µM (inactive) | 25.6 µM (inactive) | > 100 µM (inactive) | 23.8 µM (inactive) | 13.5 µM (inactive) | 44.7 µM (inactive) | 22.3 µM (inactive) | 21.8 µM (inactive) | 10.5 µM (inactive) | 31 µM (inactive) |
| COc1c(C)c(C/C=C(\C)CC/C=C(\C)CC/C=C(\C)CCC=C(C)C)c(OC)c2ccccc12 | > 100 µM (inactive) | > 100 µM (inactive) | > 100 µM (inactive) | 28.5 µM (inactive) | > 100 µM (inactive) |  | > 100 µM (inactive) |  | > 100 µM (inactive) | > 100 µM (inactive) | > 100 µM (inactive) | > 100 µM (inactive) | > 100 µM (inactive) | > 100 µM (inactive) | > 100 µM (inactive) |  | > 100 µM (inactive) | > 100 µM (inactive) | > 100 µM (inactive) | > 100 µM (inactive) |
| CCCSc1ccc2[nH]c(N3C(=O)/C(=C/c4ccc(O)c(OC)c4)N=C3c3ccccc3)cc2c1 | 3.57 µM (inactive) | 4.18 µM (inactive) | 12.8 µM (inactive) | 7.82 µM (inactive) |  | 2.98 µM (inactive) | 14.7 µM (inactive) |  | 2.94 µM (inactive) | 0.1 µM (active) | 3.58 µM (inactive) | 14.5 µM (inactive) | 3.68 µM (inactive) |  | 7.59 µM (inactive) | 2.82 µM (inactive) | 22 µM (inactive) | 4.88 µM (inactive) | 0.0775 µM (active) | 5.61 µM (inactive) |
| CCCCCc1c2nc(c(CCCCC)c3ccc([nH]3)c(CCCCC)c3nc(c(CCCCC)c4ccc1[nH]4)C=C3)C=C2 | > 100 µM (inactive) | > 100 µM (inactive) | > 100 µM (inactive) | > 100 µM (inactive) | > 100 µM (inactive) | > 100 µM (inactive) | > 100 µM (inactive) |  | > 100 µM (inactive) | > 100 µM (inactive) | > 100 µM (inactive) | > 100 µM (inactive) | > 100 µM (inactive) | > 100 µM (inactive) | > 100 µM (inactive) | > 100 µM (inactive) | > 100 µM (inactive) | > 100 µM (inactive) | > 100 µM (inactive) | > 100 µM (inactive) |
| C=CCOC(C)(C)C1=CCC(C)CC1 (centres undefined) | > 100 µM (inactive) | > 100 µM (inactive) | > 100 µM (inactive) |  | > 100 µM (inactive) | > 100 µM (inactive) | > 100 µM (inactive) |  | > 100 µM (inactive) | > 100 µM (inactive) | > 100 µM (inactive) | > 100 µM (inactive) |  | > 100 µM (inactive) | > 100 µM (inactive) | > 100 µM (inactive) | > 100 µM (inactive) | > 100 µM (inactive) |  | > 100 µM (inactive) |
| COC(=O)C1C(OC(=O)C(Cl)(c2ccccc2)c2ccccc2)CC2CCC1N2C (centres undefined) | > 100 µM (inactive) | > 100 µM (inactive) | > 100 µM (inactive) | > 100 µM (inactive) | > 100 µM (inactive) | > 100 µM (inactive) | 94.6 µM (inactive) | > 100 µM (inactive) | > 100 µM (inactive) | > 100 µM (inactive) | 45.1 µM (inactive) | > 100 µM (inactive) | > 100 µM (inactive) |  | > 100 µM (inactive) | > 100 µM (inactive) |  | > 100 µM (inactive) |  | > 100 µM (inactive) |
| C=CC[C@H](C[C@H](C[C@H](C[C@H](C[C@H](C[C@H](C[C@H](C[C@H](C[C@H](C[C@H](CCCCC)OC)OC)OC)OC)OC)OC)OC)OC)OC)OC | 83.2 µM (inactive) | > 100 µM (inactive) | 50.7 µM (inactive) | > 100 µM (inactive) | > 100 µM (inactive) | > 100 µM (inactive) | > 100 µM (inactive) | 62.2 µM (inactive) |  | > 100 µM (inactive) | > 100 µM (inactive) | > 100 µM (inactive) | 70.3 µM (inactive) | > 100 µM (inactive) | 82.6 µM (inactive) | 52.5 µM (inactive) | > 100 µM (inactive) | > 100 µM (inactive) | > 100 µM (inactive) | > 100 µM (inactive) |
| CC1=C[C@H](C[C@]2(C)c3c(c4c(C)cccc4oc3=O)O[C@@H]2C)OC1=O | > 100 µM (inactive) | 54.8 µM (inactive) | 32.5 µM (inactive) | 19.3 µM (inactive) | > 100 µM (inactive) | 29.9 µM (inactive) | > 100 µM (inactive) | > 100 µM (inactive) | 52.6 µM (inactive) | > 100 µM (inactive) | 66.1 µM (inactive) | > 100 µM (inactive) | 28 µM (inactive) |  | 15.7 µM (inactive) | 22.5 µM (inactive) |  | > 100 µM (inactive) | > 100 µM (inactive) | 21.7 µM (inactive) |
| O=C1Cc2c([nH]c3c(Br)cccc23)-c2ccccc2N1 | 43.6 µM (inactive) | 57.9 µM (inactive) | 37.9 µM (inactive) | 16.4 µM (inactive) | 57.7 µM (inactive) | > 100 µM (inactive) |  | > 100 µM (inactive) | 24.6 µM (inactive) | 37.2 µM (inactive) | 58.5 µM (inactive) | > 100 µM (inactive) | 18.2 µM (inactive) |  | > 10 µM (inactive) | 21.5 µM (inactive) |  | 49.5 µM (inactive) | > 100 µM (inactive) | 38.1 µM (inactive) |
| C[N+](C)([O-])CCCNc1ccnc2cccc([N+](=O)[O-])c12 | > 100 µM (inactive) | 47.1 µM (inactive) | 46.5 µM (inactive) | 31.6 µM (inactive) | 34.8 µM (inactive) | 28.1 µM (inactive) | 44.1 µM (inactive) | 47.1 µM (inactive) | 27.4 µM (inactive) | 80.7 µM (inactive) | 37.7 µM (inactive) | > 100 µM (inactive) | 38.5 µM (inactive) | 20.5 µM (inactive) | 28.4 µM (inactive) | 20.2 µM (inactive) |  | 22 µM (inactive) | 19.8 µM (inactive) | 31.1 µM (inactive) |
| N=c1ccn2c(n1)O[C@H]1[C@H](O)[C@@H](CO)O[C@H]12 [ANCITABINE HYDROCHLORIDE] |  | 1.91 µM (inactive) |  |  | 15.1 µM (inactive) | 3.03 µM (inactive) | 1.66 µM (inactive) |  | 0.522 µM (active) | 66.1 µM (inactive) | 0.253 µM (active) | 62.1 µM (inactive) | 8.85 µM (inactive) | > 1000 µM (inactive) | 0.282 µM (active) | 0.346 µM (active) |  | 44.1 µM (inactive) | 411 µM (inactive) |  |
| COc1c(O)c2c(c3cc(C(=O)N4CCc5c4c(O)c(OC)c4[nH]c(C(=O)N6CC7CC78C6=CC(=O)c6[nH]cc(C)c68)cc54)[nH]c13)CCN2C(N)=O (centres undefined) [CC-1065] | 0.00457 µM (active) | 0.000685 µM (active) | 0.00834 µM (active) | 0.00507 µM (active) | 0.000191 µM (active) | 0.00209 µM (active) | 0.000975 µM (active) | 0.000212 µM (active) | 0.0577 µM (active) | 0.00217 µM (active) | 0.0016 µM (active) | 0.867 µM (active) | 0.00309 µM (active) |  | 0.000207 µM (active) | 0.00783 µM (active) | 0.00306 µM (active) | 0.00366 µM (active) |  | 0.00105 µM (active) |
